{"source": "patent US8986696B2", "about": "“Trans-capsular administration of p38 map kinase inhibitors into orthopedic joints” (DePuy Mitek, Inc., priority 2007, dated 2015)", "key": {"[1]": {"tested_on": "injured cartilage explants", "type": "cell-based", "description": "The device comprises a vertical rail that guides a sliding weight from 0.1 kg to 3 kg directly onto a force transducer which is situated at the bottom of the device. A sphere-shaped 2 mm indenter resting on a specimen is located at the bottom of the vertical rail. The indenter is held by a stop screw. The specimen is rigidly attached to a tissue holder underneath the indenter, to avoid side movements, the specimen is rigidly attached to the tissue holder. In this manner, the force transducer transduces a force indirectly onto the specimen. Adjusting the weight of a mass and height from which the mass drops varies the magnitude of the intended impact. For example, a weight mass (e.g., […]) held by a weight holder can be released from a height of e.g., 36 cm and dropped onto the force transducer."}, "[2]": {"tested_on": "rabbit anterior cruciate ligament transection (ACLT) model of osteoarthritis", "experiment": "ACLT model pilot study, JNJ 3026582 (Example VI)", "type": "in vivo", "experimental": "New Zealand white rabbits (male, six to eight pounds) were anesthetized with ketamine (17 mg/kg) and xylazine (2.5 mg/kg). Supplementation was given during surgery, if needed, with an additional intramuscular injection of ketamine (35 mg/kg) and xylazine (5 mg/kg). The animals were given buprenorphine (0.01-0.05 mg/kg) for analgesia via a subcutaneous injection. The buprenorphine was administered every twelve hours for seventy-two hours. After induction of anesthesia, the right leg was clipped free of hair using electric animal clippers. The area around the site of surgery was scrubbed with chlorhexidine diacetate, rinsed with alcohol, dried, and painted with an aqueous iodophor solution of 1% available iodine and surgery was prepared using aseptic technique. In the right limb of each animal, the anterior cruciate ligament (ACL) was transected. A medial parapatellar incision was made and the patella was dislocated. The knee was flexed and the ACL visualized. A scalpel blade was positioned behind the ACL and brought anteriorly, thereby cutting the ACL while protecting the posterior cruciate ligament. The patella was returned to the normal anatomic position. The wound was closed in layers.\nFollowing surgery, the animals were left untreated for six weeks. After six weeks, a series of five injections of the test compound were injected intra-articularly once weekly.\nThe animals were euthanized six weeks after initiation with an intravenous injection of pentobarbital (60 mg/kg). […] Immediately following euthanasia, gross observations of the knee joints were made and any abnormality was recorded. The joints were analyzed for disease state in the trochlear groove, the femoral condyles and the tibial plateau. Pathological assessments were performed on the sectioned tissue. Condylar structure, cellularity, presence of GAG and presence of cartilage were evaluated.\nSterile formulations of JNJ 3026582 (RWJ 67657) were prepared by gamma irradiation (1.5 mRAD) on dry ice. DMSO was sterile filtered and the remaining formulations were prepared aseptically. Specifically, 11.5 mg of JNJ 3026582 (RWJ 67657) was dissolved in 4 mL DMSO and the solution was thoroughly mixed with 5 mL of ARTHREASE® (Lot: 11840812) (Biotechnology General (Israel) Ltd.). The final concentration of JNJ 3026582 (RWJ 67657) in the formulation was 1.3 μg/μL and was considered the high dose. The mid dose was made by a 1:10 dilution of the high dose. The low dose was created in the same fashion as the mid dose i.e., by a 1:10 dilution of the mid dose.\nA total of four rabbits (n=4) underwent ACLT of the right limb according to the ACLT model described above.\nAs discussed above, each formulation was injected once per week for five weeks. 160 μI was injected each time via a 26G (gauge) needle. The vehicle for the formulation was ARTHREASE® (Bio-Technology General (Israel) Ltd.).\nAt the time of sacrifice, the following parameters were evaluated grossly (the scale follows in parenthesis):\nEach parameter was given a score. The combination of all parameters gave a Total Score. A higher score indicates more damage to the joint. The most clinically relevant parameters are discussed in detail below."}, "JNK": {"tested_on": "JNK", "experiment": "JNK inhibition", "type": "biochemical"}, "[3]": {"tested_on": "LPS-induced TNF human peripheral blood mononuclear cells (hPBMC)", "experiment": "LPS-induced TNF in hPBMC", "type": "cell-based"}, "[4]": {"tested_on": "LPS-induced IL-1 in hPBMC", "experiment": "LPS-induced IL-1 in hPBMC", "type": "cell-based, human"}, "COX2": {"biological_target": "COX2 (Homo sapiens, UniProt P35354)", "sequence (P35354 18-604)": "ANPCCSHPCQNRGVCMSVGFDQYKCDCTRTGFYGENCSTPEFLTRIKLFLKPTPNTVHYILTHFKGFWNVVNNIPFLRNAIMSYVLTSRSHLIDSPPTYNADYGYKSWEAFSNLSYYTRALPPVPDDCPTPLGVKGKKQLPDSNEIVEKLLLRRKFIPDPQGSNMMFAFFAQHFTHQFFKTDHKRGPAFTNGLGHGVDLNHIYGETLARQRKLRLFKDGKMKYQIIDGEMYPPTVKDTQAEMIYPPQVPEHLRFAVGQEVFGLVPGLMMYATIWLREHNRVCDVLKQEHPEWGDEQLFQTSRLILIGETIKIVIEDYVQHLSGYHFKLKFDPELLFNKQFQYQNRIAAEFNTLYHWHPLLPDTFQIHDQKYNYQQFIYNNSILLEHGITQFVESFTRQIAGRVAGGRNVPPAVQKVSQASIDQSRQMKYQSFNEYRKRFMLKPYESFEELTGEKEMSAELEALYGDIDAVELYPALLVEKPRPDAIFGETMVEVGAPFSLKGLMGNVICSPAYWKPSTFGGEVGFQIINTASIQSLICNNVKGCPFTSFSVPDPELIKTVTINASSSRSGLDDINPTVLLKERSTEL", "experiment": "COX2 inhibition", "type": "biochemical"}}, "note": "pIC50: −log10 of the molar value.", "data": [{"smiles": "CC(=O)Oc1cccc2c1C(=O)c1c(OC(C)=O)cc(C(=O)O)cc1C2=O", "note": "[Diacerein, reference compound]", "values": [{"measurement": "cytotoxicity (LDH, words)", "setting": "[1]", "result": "tolerant"}]}, {"smiles": "OCCC#Cc1nc(-c2ccc(F)cc2)c(-c2ccncc2)n1CCCc1ccccc1", "note": "[JNJ 3026582 (RWJ 67657), 4-[4-(4-fluorophenyl)-1-(3-phenylpropyl)-5-(4-pyridinyl)-1H-imidazol-2-yl]-3-butyn-1-ol]", "values": [{"measurement": "Appearance of Meniscus Lateral, mean score", "setting": "[2]; High 50 μg/kg", "result": 2.00}, {"measurement": "Appearance of Meniscus Medial, mean score", "setting": "[2]; High 50 μg/kg", "result": 2.25}, {"measurement": "Appearance of Patella, mean score", "setting": "[2]; High 50 μg/kg", "result": 1.25}, {"measurement": "Femoral Condyle Presence of Clefts, mean score", "setting": "[2]; High 50 μg/kg", "result": 0}, {"measurement": "Tibial Plateau (Lateral) # of Osteophytes, mean score", "setting": "[2]; High 50 μg/kg", "result": 2.00}, {"measurement": "Tibial Plateau (Lateral) Depth of Erosion, mean score", "setting": "[2]; High 50 μg/kg", "result": 2.06}, {"measurement": "Tibial Plateau (Lateral) Presence of Clefts, mean score", "setting": "[2]; High 50 μg/kg", "result": 0}, {"measurement": "Tibial Plateau (Lateral) Surface Area Erosion, mean score", "setting": "[2]; High 50 μg/kg", "result": 2.50}, {"measurement": "Tibial Plateau (Medial) # of Osteophytes, mean score", "setting": "[2]; High 50 μg/kg", "result": 1.63}, {"measurement": "Tibial Plateau (Medial) Depth of Erosion, mean score", "setting": "[2]; High 50 μg/kg", "result": 1.94}, {"measurement": "Tibial Plateau (Medial) Presence of Clefts, mean score", "setting": "[2]; High 50 μg/kg", "result": 0}, {"measurement": "Tibial Plateau (Medial) Surface Area Erosion, mean score", "setting": "[2]; High 50 μg/kg", "result": 2.50}, {"measurement": "Trochlear Groove # of Osteophytes, mean score", "setting": "[2]; High 50 μg/kg", "result": 3.00}, {"measurement": "Trochlear Groove Erosion of Cartilage, mean score", "setting": "[2]; High 50 μg/kg", "result": 1.25}, {"measurement": "Trochlear Groove Osteophyte Size, mean score", "setting": "[2]; High 50 μg/kg", "result": 3.00}, {"measurement": "Trochlear Groove Thickening, mean score", "setting": "[2]; High 50 μg/kg", "result": 0.25}, {"measurement": "Appearance of Meniscus Lateral, mean score", "setting": "[2]; Low 0.5 μg/kg", "result": 1.25}, {"measurement": "Appearance of Meniscus Medial, mean score", "setting": "[2]; Low 0.5 μg/kg", "result": 1.25}, {"measurement": "Appearance of Patella, mean score", "setting": "[2]; Low 0.5 μg/kg", "result": 0.50}, {"measurement": "Femoral Condyle Presence of Clefts, mean score", "setting": "[2]; Low 0.5 μg/kg", "result": 0}, {"measurement": "Tibial Plateau (Lateral) # of Osteophytes, mean score", "setting": "[2]; Low 0.5 μg/kg", "result": 1.75}, {"measurement": "Tibial Plateau (Lateral) Depth of Erosion, mean score", "setting": "[2]; Low 0.5 μg/kg", "result": 2.13}, {"measurement": "Tibial Plateau (Lateral) Presence of Clefts, mean score", "setting": "[2]; Low 0.5 μg/kg", "result": 0}, {"measurement": "Tibial Plateau (Lateral) Surface Area Erosion, mean score", "setting": "[2]; Low 0.5 μg/kg", "result": 2.00}, {"measurement": "Tibial Plateau (Medial) # of Osteophytes, mean score", "setting": "[2]; Low 0.5 μg/kg", "result": 1.50}, {"measurement": "Tibial Plateau (Medial) Depth of Erosion, mean score", "setting": "[2]; Low 0.5 μg/kg", "result": 0.50}, {"measurement": "Tibial Plateau (Medial) Presence of Clefts, mean score", "setting": "[2]; Low 0.5 μg/kg", "result": 0}, {"measurement": "Tibial Plateau (Medial) Surface Area Erosion, mean score", "setting": "[2]; Low 0.5 μg/kg", "result": 0.25}, {"measurement": "Trochlear Groove # of Osteophytes, mean score", "setting": "[2]; Low 0.5 μg/kg", "result": 3.00}, {"measurement": "Trochlear Groove Erosion of Cartilage, mean score", "setting": "[2]; Low 0.5 μg/kg", "result": 1.00}, {"measurement": "Trochlear Groove Osteophyte Size, mean score", "setting": "[2]; Low 0.5 μg/kg", "result": 3.00}, {"measurement": "Trochlear Groove Thickening, mean score", "setting": "[2]; Low 0.5 μg/kg", "result": 0.50}, {"measurement": "Appearance of Meniscus Lateral, mean score", "setting": "[2]; Mid 5 μg/kg", "result": 1.00}, {"measurement": "Appearance of Meniscus Medial, mean score", "setting": "[2]; Mid 5 μg/kg", "result": 2.5}, {"measurement": "Appearance of Patella, mean score", "setting": "[2]; Mid 5 μg/kg", "result": 1.38}, {"measurement": "Femoral Condyle Presence of Clefts, mean score", "setting": "[2]; Mid 5 μg/kg", "result": 0}, {"measurement": "Tibial Plateau (Lateral) # of Osteophytes, mean score", "setting": "[2]; Mid 5 μg/kg", "result": 2.25}, {"measurement": "Tibial Plateau (Lateral) Depth of Erosion, mean score", "setting": "[2]; Mid 5 μg/kg", "result": 0.88}, {"measurement": "Tibial Plateau (Lateral) Presence of Clefts, mean score", "setting": "[2]; Mid 5 μg/kg", "result": 0}, {"measurement": "Tibial Plateau (Lateral) Surface Area Erosion, mean score", "setting": "[2]; Mid 5 μg/kg", "result": 2.25}, {"measurement": "Tibial Plateau (Medial) # of Osteophytes, mean score", "setting": "[2]; Mid 5 μg/kg", "result": 2.00}, {"measurement": "Tibial Plateau (Medial) Depth of Erosion, mean score", "setting": "[2]; Mid 5 μg/kg", "result": 1.13}, {"measurement": "Tibial Plateau (Medial) Presence of Clefts, mean score", "setting": "[2]; Mid 5 μg/kg", "result": 0}, {"measurement": "Tibial Plateau (Medial) Surface Area Erosion, mean score", "setting": "[2]; Mid 5 μg/kg", "result": 2.00}, {"measurement": "Trochlear Groove # of Osteophytes, mean score", "setting": "[2]; Mid 5 μg/kg", "result": 3.00}, {"measurement": "Trochlear Groove Erosion of Cartilage, mean score", "setting": "[2]; Mid 5 μg/kg", "result": 1.63}, {"measurement": "Trochlear Groove Osteophyte Size, mean score", "setting": "[2]; Mid 5 μg/kg", "result": 3.00}, {"measurement": "Trochlear Groove Thickening, mean score", "setting": "[2]; Mid 5 μg/kg", "result": 0.75}, {"measurement": "All Cartilage Effects (0-38), average score", "setting": "[2]; high dose 50 μg/kg", "result": 19.19}, {"measurement": "All Condylar Effects (0-18), average score", "setting": "[2]; high dose 50 μg/kg", "result": 8.69}, {"measurement": "All Meniscal Effects (0-6), average score", "setting": "[2]; high dose 50 μg/kg", "result": 4.25}, {"measurement": "Total Score (0-59), average", "setting": "[2]; high dose 50 μg/kg", "result": 34.31}, {"measurement": "lateral femoral condyle % surface area erosion, average score", "setting": "[2]; high dose 50 μg/kg", "result": 2.5}, {"measurement": "medial femoral condyle % surface area erosion, average score", "setting": "[2]; high dose 50 μg/kg", "result": 2.25}, {"measurement": "All Cartilage Effects (0-38), average score", "setting": "[2]; low dose 0.5 μg/kg", "result": 12.75}, {"measurement": "All Condylar Effects (0-18), average score", "setting": "[2]; low dose 0.5 μg/kg", "result": 6.38}, {"measurement": "All Meniscal Effects (0-6), average score", "setting": "[2]; low dose 0.5 μg/kg", "result": 2.50}, {"measurement": "Total Score (0-59), average", "setting": "[2]; low dose 0.5 μg/kg", "result": 25.00}, {"measurement": "lateral femoral condyle % surface area erosion, average score", "setting": "[2]; low dose 0.5 μg/kg", "result": 1.23}, {"measurement": "medial femoral condyle % surface area erosion, average score", "setting": "[2]; low dose 0.5 μg/kg", "result": 1.5}, {"measurement": "All Cartilage Effects (0-38), average score", "setting": "[2]; mid dose 5 μg/kg", "result": 14.50}, {"measurement": "All Condylar Effects (0-18), average score", "setting": "[2]; mid dose 5 μg/kg", "result": 5.88}, {"measurement": "All Meniscal Effects (0-6), average score", "setting": "[2]; mid dose 5 μg/kg", "result": 3.50}, {"measurement": "Total Score (0-59), average", "setting": "[2]; mid dose 5 μg/kg", "result": 29.63}, {"measurement": "lateral femoral condyle % surface area erosion, average score", "setting": "[2]; mid dose 5 μg/kg", "result": 0.75}, {"measurement": "medial femoral condyle % surface area erosion, average score", "setting": "[2]; mid dose 5 μg/kg", "result": 1.63}]}, {"smiles": "C[C@H](Nc1nccc(-c2c(-c3ccc(F)cc3)nc3nc(N)ccn23)n1)c1ccccc1", "note": "[JNJ 7583979 (RWJ 351958)]", "values": [{"measurement": "pIC50", "setting": "JNK", "result": 7.92}]}, {"smiles": "CC(=O)N1CCN(c2c(-c3ccncc3)c(-c3ccc(F)cc3)c(C#N)n2C)CC1", "note": "[JNJ 17089540 (RWJ 669307)]", "values": [{"measurement": "pIC50", "setting": "[3]", "result": 6.66}, {"measurement": "pIC50", "setting": "[4]", "result": 6.60}, {"measurement": "pIC50", "setting": "COX2", "result": "< 5.00"}]}]}
